Results as given in DBAASP.
In brackets after ≈: the same amount, converted by molar mass. Several values for one entry are separate records, joined by “and”; a condition that tells them apart may be missing. Equal values may be shown once. Values belong to the molecule of their own block, whether it stands above or below them.

Tests used:
Assay in all cases: ≥ marks a high value that may be exact or a test limit, other limits are often not marked, values filed in µg/mL are converted to µM
[1] = tested on: Candida albicans CCARM 14022
[2] = tested on: Candida albicans CCARM 14021
[3] = tested on: Candida albicans CCARM 14020
Candida albicans SC5314 = tested on: Candida albicans SC5314
Escherichia coli JM109 = tested on: Escherichia coli JM109
[4] = tested on: Vibrio harveyi ATCC 14126
[5] = tested on: Vibrio vulnificus KCTC 2982
[6] = tested on: Vibrio campbellii KCCM 40684
[7] = tested on: Vibrio alginolyticus KCCM 2928
[8] = tested on: Vibrio ordalii KCCM 41669
Edwardsiella tarda = tested on: Edwardsiella tarda
[9] = tested on: Streptococcus iniae FP5228
Escherichia coli BW25113 = tested on: Escherichia coli BW25113
[10] = tested on: Pseudomonas aeruginosa ATCC 27853
[11] = tested on: Escherichia coli ATCC 25922
[12] = tested on: Escherichia coli BW25113 ΔrfaC
[13] = tested on: Staphylococcus aureus ATCC 43300
[14] = tested on: Salmonella enterica subsp. enterica serovar Typhimurium LT2
[15] = tested on: Campylobacter jejuni NCTC 11168
[16] = tested on: Staphylococcus aureus ATCC 29213
[17] = tested on: Yersinia ruckeri 392/2003
[18] = tested on: Listeria monocytogenes N22-2
[19] = tested on: Escherichia coli ATCC BAA-2523
[20] = tested on: Escherichia coli ATCC 25922 ΔrfaC
Enterococcus faecalis VR = tested on: Enterococcus faecalis VR
[21] = tested on: Aeromonas salmonicida ATCC 33658
[22] = tested on: Flavobacterium psychrophilum 1947
[23] = tested on: Enterococcus faecalis ATCC 29212
Pseudomonas aeruginosa = tested on: Pseudomonas aeruginosa
Enterococcus faecalis = tested on: Enterococcus faecalis
[24] = tested on: Trichosporon beigelii KCTC 7707
[25] = tested on: Bacillus subtilis KCTC 1918
[26] = tested on: Staphylococcus epidermidis KCTC 3096
[27] = tested on: Pseudomonas aeruginosa KCTC 1637
[28] = tested on: Salmonella typhimurium KCTC 1926
[29] = tested on: Candida albicans TIMM 1768
[30] = tested on: Enterococcus faecalis V583
[31] = tested on: Xanthomonas campestris pv. campestris
[32] = tested on: Xanthomonas oryzae pv. oryzae
[33] = tested on: Cryptococcus neoformans var. grubii H99
[34] = tested on: Escherichia coli DH5alpha
Bacillus subtilis = tested on: Bacillus subtilis
[35] = tested on: Pseudomonas aeruginosa CGMCC 1.860
[36] = tested on: Pseudomonas aeruginosa 0108

Compound: CC[C@H](C)[C@H](NC(=O)[C@H](C)NC(=O)[C@H](Cc1cnc[nH]1)NC(=O)CNC(=O)[C@@H](NC(=O)CNC(=O)[C@H](Cc1cnc[nH]1)NC(=O)[C@H](CC(C)C)NC(=O)[C@H](CC(C)C)NC(=O)[C@H](CCSC)NC(=O)CNC(=O)[C@H](CC(C)C)NC(=O)[C@H](Cc1ccccc1)NC(=O)CNC(=O)[C@H](CCC(=O)O)NC(=O)CN)C(C)C)C(=O)N[C@@H](Cc1cnc[nH]1)C(=O)NCC(=O)N[C@@H](CC(C)C)C(=O)N[C@H](C(=O)N[C@@H](Cc1cnc[nH]1)C(=O)NCC(=O)N[C@@H](CCCCN)C(=O)O)[C@@H](C)CC [GEGFLGMLLHGVGHAIHGLIHGK]
MIC (Escherichia coli JM109): 2.72 µM (≈ 6.4 µg/mL) | MIC [4]: 0.9 µM (≈ 2.12 µg/mL) | MIC [5]: 5.52 µM (≈ 13 µg/mL) | MIC [6]: 1.9 µM (≈ 4.47 µg/mL) | MIC [7]: 1.31 µM (≈ 3.07 µg/mL) | MIC [8]: 0.9 µM (≈ 2.12 µg/mL) | MIC (Edwardsiella tarda): ≥ 354 µM | MIC [9]: 0.9 µM (≈ 2.12 µg/mL)

Compound: CC[C@H](C)[C@H](NC(=O)[C@H](CC(C)C)NC(=O)[C@H](CCCCN)NC(=O)[C@H](CC(C)C)NC(=O)[C@H](CC(C)C)NC(=O)[C@H](CCCCN)NC(=O)[C@H](CCCN=C(N)N)NC(=O)[C@H](Cc1ccccc1)NC(=O)[C@H](CC(C)C)NC(=O)[C@H](CCCCN)NC(=O)[C@H](CCCN=C(N)N)NC(=O)[C@H](CC(C)C)NC(=O)[C@@H](N)CCCCN)C(=O)N[C@@H](CCCN=C(N)N)C(=O)N[C@@H](CCCCN)C(=O)N[C@@H](CC(C)C)C(=O)N[C@@H](CC(C)C)C(=O)N[C@@H](CCCN=C(N)N)C(=O)O [KLRKLFRKLLKLIRKLLR]
MIC (Escherichia coli BW25113): 6.85 µM (≈ 16 µg/mL) | MIC [10]: 9.69 µM and 16 µM | MIC [11]: 9.69 µM and 16 µM | MIC [12]: 3.42 µM (≈ 8 µg/mL) | MIC [13]: 16 µM (≈ 37.4 µg/mL) | MIC [14]: 6.85 µM (≈ 16 µg/mL) | MIC [15]: 0.856 µM (≈ 2 µg/mL) | MIC [16]: 6.85 µM and 16 µM | MIC [17]: 4.84 µM (≈ 11.3 µg/mL) | MIC [18]: 6.85 µM (≈ 16 µg/mL) | MIC [19]: ≥ 32 µM | MIC [20]: 6.85 µM (≈ 16 µg/mL) | MIC (Enterococcus faecalis VR): 16 µM (≈ 37.4 µg/mL) | MIC [21]: 19.4 µM (≈ 45.3 µg/mL) | MIC [22]: ≥ 110 µM | MIC [23]: 4.84 µM (≈ 11.3 µg/mL) | MIC (Pseudomonas aeruginosa): 16 µM (≈ 37.4 µg/mL) | MIC (Enterococcus faecalis): 16 µM (≈ 37.4 µg/mL)

Compound: CC(C)C[C@H](NC(=O)[C@H](CC(C)C)NC(=O)[C@@H](N)CC(C)C)C(=O)NCC(=O)N[C@@H](C)C(=O)N[C@@H](C)C(=O)N[C@H](C(=O)NCC(=O)O)[C@@H](C)O [LLLGAATG]
MIC [30]: ≥ 86.7 µM

The next lines start with the values.

MIC [1]: 3.59 µM (≈ 5.65 µg/mL) | MIC [2]: 3.59 µM (≈ 5.65 µg/mL) | MIC [3]: 14.4 µM (≈ 22.6 µg/mL) | MIC (Candida albicans SC5314): 14.4 µM (≈ 22.6 µg/mL)
Compound: CC(C)C[C@H](NC(=O)CNC(=O)[C@H](Cc1cnc[nH]1)NC(=O)[C@H](Cc1cnc[nH]1)NC(=O)[C@H](CCCN=C(N)N)NC(=O)[C@H](CCCCN)NC(=O)[C@H](C)N)C(=O)N[C@@H](CC(N)=O)C(=O)N[C@@H](CS)C(=O)N[C@@H](C)C(=O)N[C@@H](CCCCN)C(=O)NCC(=O)N[C@H](C(=O)N[C@@H](CC(C)C)C(=O)N[C@@H](C)C(N)=O)C(C)C [AKRHHGLNCAKGVLA]

MIC [24]: 8.84 µM (≈ 15.1 µg/mL) | MIC [25]: 6.25 µM (≈ 10.7 µg/mL) | MIC [26]: 6.25 µM (≈ 10.7 µg/mL) | MIC [27]: 3.12 µM (≈ 5.32 µg/mL) | MIC [28]: 1.56 µM (≈ 2.66 µg/mL) | MIC [29]: 12.5 µM (≈ 21.3 µg/mL)
Compound: CC[C@H](C)[C@H](NC(=O)CNC(=O)[C@@H](NC(=O)[C@H](CCCCN)NC(=O)[C@H](CCCCN)NC(=O)[C@H](Cc1ccccc1)NC(=O)[C@H](CC(C)C)NC(=O)[C@H](CCCCN)NC(=O)[C@H](Cc1c[nH]c2ccccc12)NC(=O)[C@@H](N)CCCCN)[C@@H](C)CC)C(=O)NCC(=O)N[C@@H](CCCCN)C(=O)N[C@@H](Cc1ccccc1)C(=O)N[C@@H](CC(C)C)C(N)=O [KWKLFKKIGIGKFL]

MIC [10]: > 100 µM | MIC [31]: ≥ 100 µM | MIC [32]: ≥ 100 µM | MIC [33]: ≥ 100 µM | MIC (Candida albicans SC5314): ≥ 100 µM | MIC [34]: ≥ 100 µM | MIC (Bacillus subtilis): ≥ 100 µM
Compound: CC(C)C[C@H](NC(=O)CNC(=O)[C@H](CS)NC(=O)CNC(=O)[C@H](CC(N)=O)NC(=O)CNC(=O)[C@H](Cc1c[nH]c2ccccc12)NC(=O)CNC(=O)[C@H](CCCN=C(N)N)NC(=O)[C@H](C)NC(=O)[C@@H](N)C(C)C)C(=O)N[C@@H](Cc1ccccc1)C(=O)NCC(=O)N[C@@H](CCCCN)C(=O)NCC(=O)NCC(=O)O [VARGWGNGCGLFGKGG]

MIC [35]: 3.13 µM (≈ 5.09 µg/mL) | MIC [36]: 6.25 µM (≈ 10.2 µg/mL)
Compound: CC[C@H](C)[C@H](NC(=O)[C@H](CCCCN)NC(=O)[C@H](CO)NC(=O)[C@H](CC(C)C)NC(=O)[C@@H](NC(=O)[C@H](CCCCN)NC(=O)[C@H](CCCCN)NC(=O)[C@@H](N)Cc1c[nH]c2ccccc12)[C@@H](C)CC)C(=O)N[C@@H](CCCCN)C(=O)N[C@@H](CCCCN)C(=O)N[C@@H](CC(C)C)C(=O)N[C@@H](CC(C)C)C(=O)N[C@@H](CCCCN)C(N)=O [WKKILSKIKKLLK]
